We go through 12 molecules from patent publication US10150733B2, “Amidoheteroaryl aroyl hydrazide ethynes” (SUN PHARMA ADVANCED RESEARCH COMPANY LTD., priority 2015, dated 2018).

The test system of test [1] is c-Abl kinase (K562 cells). In words: In-vitro cell proliferation assay (MTT), K562 cells. Type of test: cell-based. As to conditions: for inhibition at 0.001 µM / inhibition at 0.01 µM / inhibition at 0.1 µM: Homo sapiens. As for the experimental part:
In-vitro Cell Proliferation Assay
K562/U937 cells (2×10^4 per well) were incubated with the test compounds/vehicle in a total volume of 200 μL of media at 37° C. with 5% CO2. On day 4, 20 μL MTT 5 mg/ml was added and the cells were incubated for 4-5 hours followed by addition of 100 μL of 10% SDS prepared in 0.06N HCl. The cells were incubated overnight at 37° C. with 5% CO2. On Day 5 the optical density was measured at 570 nm with 630 nm as reference wavelength. The optical density in the vehicle treated wells was compared with that of the test compound treated wells.

In test [2] the target is mutated Abl (T315I) (human) (Homo sapiens, UniProt P00519, T315I). Nature of the test: Mutated Abl (T315I) (human) kinase assay, 33P-ATP filter binding. Type of test: biochemical. As to conditions: for inhibition at 0.003 µM: 3 nM; for inhibition at 0.03 µM: 30 nM. How it is done:
Mutated Abl (T315I) (Human)Kinase
In a final reaction volume of 25 μL, mutated Abl (T315I) (human) (5-10 mU) is incubated with 8 mM MOPS pH7.0, 0.2 mM EDTA, […] EAIYAAPFAKKK, 10 mM Mg(OAc)2 and [γ-33P-ATP] [specific activity approx. 500 cpm/pmol, concentration as required]. The reaction is initiated by the addition of the MgATP mix. After incubation for 40 minutes at room temperature, the reaction is stopped by the addition of 5 μL of a 3% phosphoric acid solution. 10 μL of the reaction is then spotted onto a P30 filtermat and washed three times for 5 minutes in 75 mM phosphoric acid and once in methanol prior to drying and scintillation counting.

Broadly, the inhibition is the relative decrease from the control value, in per cent. The molecule `Cc1ccc(C(=O)NNC(=O)c2c(C)cccc2Cl)cc1C#Cc1ccc(NC(=O)C2CC2)nc1` [I.1, cyclopropanecarboxylic acid (5-{5-[N′-(2-chloro-6-methylbenzoyl)hydrazinocarbonyl]-2-methyl-phenylethynyl}-pyridin-2-yl)amide] came in with an inhibition at 0.001 µM in test [1] (1 nM) of 84.7%. Further, the inhibition at 0.01 µM in test [1] (10 nM) worked out at 91.1%. Besides, in test [1] (100 nM), the inhibition at 0.1 µM was 87%. In test [2], the inhibition at 0.003 µM turned out to be 87% and the inhibition at 0.03 µM is 98%.
`Cc1ccc(C(=O)NNC(=O)c2c(C)cccc2Cl)cc1C#Cc1ccc(NC(=O)CN(C)C)nc1` [I.2, N-(5-{5-[N′-(2-chloro-6-methylbenzoyl)hydrazinocarbonyl]-2-methyl-phenylethynyl}-pyridin-2-yl)-2-dimethylaminoacetamide] showed an inhibition at 0.001 µM in test [1] (1 nM) of 71.6%. The same molecule showed an inhibition at 0.01 µM in test [1] (10 nM) of 82.5%. The molecule also had an inhibition at 0.1 µM in test [1] (100 nM) of 82.9%. For the same molecule, in test [2], the inhibition at 0.003 µM is 50% and the inhibition at 0.03 µM came out at 87%.
The molecule `Cc1ccc(C(=O)NNC(=O)c2c(C)cccc2Cl)cc1C#Cc1ccc(NC(=O)CCN2CCN(C)CC2)nc1` [I.3, N-(5-{5-[N′-(2-Chloro-6-methylbenzoyl)hydrazinocarbonyl]-2-methyl-phenylethynyl}-pyridin-2-yl)-3-(4-methyl-piperazin-1-yl)propionamide] had an inhibition at 0.001 µM in test [1] (1 nM) of 75%. In test [1] (10 nM), this molecule had an inhibition at 0.01 µM of 85.5%. Besides, the inhibition at 0.1 µM in test [1] (100 nM) was 87.9%. Besides, in test [2], the inhibition at 0.003 µM is 59% and at 0.03 µM the inhibition was 94%.
For `Cc1ccc(C(=O)NNC(=O)c2c(C)cccc2Cl)cc1C#Cc1ccc(NC(=O)CN2CCC(N(C)C)CC2)nc1` [I.4, N-(5-{5-[N′-(2-Chloro-6-methyl-benzoyl)hydrazinocarbonyl]-2-methyl-phenylethynyl}-pyridin-2-yl)-2-(4-dimethylaminopiperidin-1-yl)acetamide] the same measures were 76.5%, 81.4%, 86.9%, 70% and 95%.
For `Cc1ccc(C(=O)NNC(=O)c2c(C)cccc2Cl)cc1C#Cc1ccc(NC(=O)CN2CCC(N(C)C)C2)nc1` (centres unmarked) [I.5, N-(5-{5-[N′-(2-Chloro-6-methyl-benzoyl)hydrazinocarbonyl]-2-methyl-phenylethynyl}-pyridin-2-yl)-2-(3-dimethylaminopyrrolidin-1-yl)acetamide] the same measures were 71.4%, 81.7%, 82.1%, 66% and 96%.
The like results for `CC(=O)Nc1ccc(C#Cc2cc(C(=O)NNC(=O)c3c(C)cccc3Cl)ccc2C)cn1` [I.6, N-(5-{5-[N′-(2-Chloro-6-methyl-benzoyl)hydrazinocarbonyl]-2-methyl-phenylethynyl}-pyridin-2-yl)acetamide] were, in that order, 88.4%, 91.6%, 91%, 68% and 89%.
As to `Cc1ccc(C(=O)NNC(=O)c2ccc(CN3CCN(C)CC3)cc2)cc1C#Cc1ccc(NC(=O)C2CC2)nc1` [I.7, Cyclopropanecarboxylic acid [5-(2-methyl-5-{N′-[4-(4-methylpiperazin-1-ylmethyl)benzoyl]-hydrazinocarbonyl}phenylethynyl)pyridin-2-yl]amide], in test [1] (1 nM), the inhibition at 0.001 µM is 24.6%. The molecule further returned an inhibition at 0.01 µM in test [1] (10 nM) of 78.6%. The same molecule returned an inhibition at 0.1 µM in test [1] (100 nM) of 85.9%.
For `Cc1cn(-c2cc(C(=O)NNC(=O)c3ccc(C)c(C#Cc4ccc(NC(=O)C5CC5)nc4)c3)cc(C(F)(F)F)c2)cn1` [I.8, Cyclopropanecarboxylic acid [5-(2-methyl-5-{N′-[3-(4-methylimidazol-1-yl)-5-trifluoromethylbenzoyl]-hydrazinocarbonyl}phenylethynyl)pyridin-2-yl]amide] the same measures were 68.9%, 84% and 86.1%.
The like results for `Cc1ccc(C(=O)NNC(=O)c2c(C)cccc2Cl)cc1C#Cc1ccc(NC(=O)NC2CC2)nc1` [I.9, 1-(5-{5-[N′-(2-Chloro-6-methyl-benzoyl)-hydrazinocarbonyl]-2-methyl-phenylethynyl}-pyridin-2-yl)-3-cyclopropylurea] were, in that order, 61%, 83.6% and 87.8%.
With `Cc1ccc(C(=O)NNC(=O)c2c(C)cccc2Cl)cc1C#Cc1ccc(NC(=O)C(F)(F)F)nc1` [I.10], the “c-Abl kinase (K562 cells); % Inhibition” value in test [1] (1 nM) was determined as 39.8%; in test [1] (10 nM), 78.5%; in test [1] (100 nM) it was 73.3%.
In the case of `Cc1ccc(C(=O)NNC(=O)c2ccc(CN3CCN(C)CC3)c(C(F)(F)F)c2)cc1C#Cc1ccc(NC(=O)C2CC2)nc1` [I.11, Cyclopropanecarboxylic acid [5-(2-methyl-5-{N′-[4-(4-methylpiperazin-1-yl-methyl)-3-trifluoromethylbenzoyl]-hydrazinocarbonyl}phenylethynyl)pyridin-2-yl]amide], 0.001 µM produced 54% inhibition in test [1] (1 nM). In addition, in test [1] (10 nM), 0.01 µM produced 58.3% inhibition. This molecule also returned an inhibition at 0.1 µM in test [1] (100 nM) of 57.2%.
Consider `CCCC(=O)Nc1ccc(C#Cc2cc(C(=O)NNC(=O)c3c(C)cccc3Cl)ccc2C)cn1` [I.12], for which the figures for the “c-Abl kinase (K562 cells); % Inhibition” value in test [1] (1 nM) and in test [1] (10 nM) were 33.6% and 80.6%, respectively.
